Legend:
[1] = system: Co-cultures of rat HSC and Human hepatocytes; test: Co-cultures of rat HSC and human hepatocytes with Tβ4, hepatocyte count after one week; type: cell-based; settings: greater than 100 ng/ml of Tβ4; one week in culture
Method: Hepatocyte Growth Factor (HGF) is a trophic factor for hepatocytes. […] Co-cultures of rat HSC and Human hepatocytes are prepared. Controls are incubated with the regular hormonally-defined medium used for hepatocytes. Experimental cultures receive greater than 100 ng/ml of Tβ4 in the same culture medium. Cells are harvested after one week using collagenase and trypsin. The hepatocytes are separated from the HSC by low speed centrifugation and the cells counted and used for total RNA extraction. […] The purity of the cell fractions are determined after staining with anti-human albumin antibodies (rat HSC are negative). RNA is used for RT-PCR and the expression of liver specific genes analyzed using human primers. Rat primers are used to determine the degree of contamination of rat HSC.

[2] = system: Human hepatic stellate cells HSC; test: RT-PCR analysis of mRNA expression in human hepatic stellate cells cultured with Tβ4; type: cell-based
Method: Human hepatic stellate cells HSC were obtained from a liver cell mixture purchased from ADMET technologies after separation on an OptiPrep® Density Gradient Medium (Sigma). They were cultured until confluent and then plated at a density of 250,000 cells/60-mm dish and cultured in MEM supplemented with 10% bovine fetal serum, 1% non-essential amino acids and antibiotics. The cells were maintained in culture for approximately 48 hours and when semi-confluent they were serum-starved overnight using MEM supplemented with 1% albumin, antibiotics and 1% non-essential amino acids. RNA was extracted with Trizol (Invitrogen) and RT-PCR performed using primers. The expression of GAPDH was used as a control. All the experiments were performed in duplicate.
In many instances, the increase was dose dependent. […] The expression of another marker of HSC differentiation, namely PDGF-β receptor, was inhibited in a dose-dependent manner (75% with 1 μg/ml of Tβ4).

[3] = HSC cultured for 24 hours with different concentrations of Tβ4, RT-PCR, GAPDH control
[4] = HSC cultured for 24 hours, RT-PCR

With thymosin beta 4 [Tβ4] the “hepatocyte proliferation / number” value [1] was “proliferate and increase in number”, the “inhibition of expression of PDGF-β receptor” value ([2]; 1 μg/ml of Tβ4, HSC cultured for 24 hours, dose-dependent) was 75% and the “increase in expression of HGF mRNA” value ([2]; 1 mg/ml of Tβ4, HSC cultured for 24 hours) was 4 fold. The “increase in expression of GSK 3β mRNA” value [2, 3] was 2.5 fold, the “increase in expression of α-SMA mRNA” value [2, 3] was 4 fold and the “increase in expression of β-catenin mRNA” value [2, 3] was 3 fold. For the same substance, the “Tβ4 concentration giving maximal expression of α-SMA” value [2, 4] was 1 µg/mL and the “Tβ4 concentration giving maximal increase in β-catenin mRNA” value [2, 4] was 1 ng/mL.

— patent publication US20100278934A1, “METHODS AND COMPOSITIONS FOR CONSERVING AND/OR PREPARING AN ORGAN OR TISSUE FOR TRANSPLANT” (Regenerx Biopharmaceuticals Inc., priority 2006, published 2010)
